Target: ENPP1 (hENPP1-ECD-His) (Homo sapiens (Human), UniProt P22413)
Sequence (P22413 98-925): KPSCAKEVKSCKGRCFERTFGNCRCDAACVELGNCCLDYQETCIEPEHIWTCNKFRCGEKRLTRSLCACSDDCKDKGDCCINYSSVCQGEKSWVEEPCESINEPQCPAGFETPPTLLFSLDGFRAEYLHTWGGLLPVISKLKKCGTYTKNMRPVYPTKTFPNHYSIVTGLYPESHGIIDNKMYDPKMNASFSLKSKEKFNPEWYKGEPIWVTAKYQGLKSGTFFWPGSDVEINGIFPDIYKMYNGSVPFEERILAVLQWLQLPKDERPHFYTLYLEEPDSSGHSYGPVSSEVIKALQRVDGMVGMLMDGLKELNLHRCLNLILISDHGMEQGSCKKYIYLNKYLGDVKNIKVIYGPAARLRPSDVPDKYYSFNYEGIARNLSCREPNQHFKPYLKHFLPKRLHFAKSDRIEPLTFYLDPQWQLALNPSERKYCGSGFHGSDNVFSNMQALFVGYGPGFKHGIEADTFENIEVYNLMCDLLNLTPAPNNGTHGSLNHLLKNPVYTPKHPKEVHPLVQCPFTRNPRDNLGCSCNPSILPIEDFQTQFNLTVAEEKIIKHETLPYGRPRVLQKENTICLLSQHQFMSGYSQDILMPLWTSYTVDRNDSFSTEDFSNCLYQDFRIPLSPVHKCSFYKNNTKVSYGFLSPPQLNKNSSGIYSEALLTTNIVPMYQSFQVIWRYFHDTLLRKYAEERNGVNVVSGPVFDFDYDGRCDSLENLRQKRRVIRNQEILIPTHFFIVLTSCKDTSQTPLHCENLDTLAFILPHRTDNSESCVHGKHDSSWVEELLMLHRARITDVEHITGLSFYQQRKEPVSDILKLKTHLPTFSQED

`COc1ccc2c(Oc3cc(F)c(C(C)(C)C(=O)NO)cc3F)ccnc2n1` [Compound 112] was tested, and the IC50 was 2.5 nM.

For `CCn1nc(C)c2c(Nc3ccc(C(C)(C)C(=O)NO)cc3)ncnc21` [Compound 83], the IC50 was 4.4 nM.

`CCn1ncc2c(Nc3ccc(C(C)(C)C(=O)NO)cc3)ncnc21` [Compound 91] was tested, and the IC50 was 1.2 nM.

For `COc1ccc2c(Nc3ccc(C(C)(C)C(=O)NO)nc3)ccnc2n1` [Compound 127], the IC50 was 1.6 nM.

`Cc1cc(Oc2ccc(C(C)(C)C(=O)NO)cc2)c2cnn(C)c2n1` [Compound 58] was tested, and the IC50 was 41 nM.

`COc1ccc2c(Cc3ccc(C4(C(=O)NO)CCOCC4)cc3)ccnc2n1` [Compound 171] was tested, and the IC50 was 1.8 nM.

Work on `Cc1nn(C)c2nccc(Oc3ccc(C(C)(C)C(=O)NO)cc3)c12` [Compound 84] yielded an IC50 of 6.1 nM.

Work on `COc1cc2nccc(Nc3ccc(C4(C(=O)NO)CCOCC4)cc3F)c2cn1` [Compound 178] yielded an IC50 of 1.2 nM.

Compound `COc1ccc2c(Nc3ccc(C(C)(C)C(=O)NO)cc3)ccnc2n1` [Compound 69] has an IC50 of 1.9 nM.

In the case of `Cc1nn(C)c2nccc(Nc3ccc(CC(=O)NO)cc3)c12` [Compound 55], the IC50 is reported as 4.3 nM.

`COc1ccc2c(NC3CCC(CC(=O)NO)C3)ccnc2n1` (centres unmarked) [Compound 142] was tested, and the IC50 was 13 nM.

`COc1ccc2c(Nc3ccc(C(C)(C)C(=O)NO)cn3)ccnc2n1` [Compound 101] showed an IC50 of 1.1 nM.

`CCn1ncc2c(Oc3cccc(C(=O)NO)c3)ccnc21` [Compound 76] was tested, and the IC50 was 289 nM.

In the case of `COc1cc2nccc(Nc3c(F)cc(C(C(=O)NO)C(C)C)cc3F)c2cn1` (centres unmarked) [Compound 185], the IC50 is reported as 3.6 nM.

In the case of `CCC(CC)(C(=O)NO)c1ccc(Oc2ccnc3nc(OC)ccc23)cc1` [Compound 124], the IC50 is reported as 1.6 nM.

`COc1ccc2c(Oc3ccc(C4(C(=O)NO)CCOCC4)cc3Cl)ccnc2n1` [Compound 138] was tested, and the IC50 was 6 nM.

For `COc1ccc2c(Nc3ccc(CC(=O)NO)cn3)ccnc2n1` [Compound 45], the IC50 was 3.1 nM.

`COc1ccc2c(Nc3c(F)cc(C(C)C(=O)NO)cc3F)ccnc2n1` (centres unmarked) [Compound 62] gave an IC50 of 1.6 nM.

Compound `COc1ccc2c(Nc3ncc(CC(=O)NO)cn3)ccnc2n1` [Compound 151] has an IC50 of 70 nM.

`COc1ccc2c(Oc3ccc(C(N)C(=O)NO)cc3)ccnc2n1` (centres unmarked) [Compound 148] showed an IC50 of 2.8 nM.

In the case of `COc1ccc2c(N[C@H]3CC[C@H](CC(=O)NO)CC3)ccnc2n1` [Compound 89], the IC50 is reported as 24 nM.

`COc1ccc2c(Nc3cc(F)c(C(C)C(=O)NO)cc3F)ccnc2n1` (centres unmarked) [Compound 47] gave an IC50 of 4.5 nM.

`COc1ccc2c(Nc3ccc(C(C(=O)NO)C(C)C)c(F)c3)ccnc2n1` (centres unmarked) [Compound 160] was tested, and the IC50 was 15 nM.

With `COc1cc2nccc(Nc3cc(F)c(C(CC(C)C)C(=O)NO)c(F)c3)c2cn1` (centres unmarked) [Compound 186] the IC50 was 3.8 nM.

In the case of `COc1ccc2c(Nc3ccc(C(CC(C)C)C(=O)NO)cc3)ccnc2n1` (centres unmarked) [Compound 182], the IC50 is reported as 1.7 nM.

Work on `COc1ccc2c(Nc3ccc4c(c3)OCC4C(=O)NO)ccnc2n1` (centres unmarked) [Compound 59] yielded an IC50 of 1.8 nM.

In the case of `COc1ccc2c(Nc3ccc(CC(=O)NO)cc3)ncnc2c1` [Compound 10], the IC50 is reported as 2.7 nM.

`COc1ccc2c(Oc3ccc(C(C(=O)NO)C4CCCC4)cc3)ccnc2n1` (centres unmarked) [Compound 170] was tested, and the IC50 was 18 nM.

Compound `Cn1ncc2c(Oc3ccc(C4(C(=O)NO)CC4)cc3)ccnc21` [Compound 80] has an IC50 of 1.9 nM.

`COc1ccc2c(Cc3ccc(C4(C(=O)NO)CCCC4)cc3)ccnc2n1` [Compound 141, N-hydroxy-1-(4-((7-methoxy-1,8-naphthylidin-4-yl)methyl)phenyl)cyclopentane-1-formamide] showed an IC50 of 1.4 nM.

In the case of `CCn1ncc2c(Nc3ccc(C4(C(=O)NO)CCOCC4)cc3)ccnc21` [Compound 163], the IC50 is reported as 2.9 nM.

In the case of `COc1ccc2c(Oc3cccc(C(=O)NO)c3)ccnc2n1` [Compound 63], the IC50 is reported as 212 nM.

With `COc1ccc2c(Nc3ccc(CC(=O)NO)cc3)nc(Cl)nc2c1` [Compound 22] the IC50 was 1.8 nM.

`Cn1ncc2ncnc(Nc3ccc(CC(=O)NO)cc3)c21` [Compound 29] was tested, and the IC50 was 14 nM.

Work on `COc1cc2nccc(Oc3ccc(C4(C(=O)NO)CCCC4)cc3)c2cn1` [Compound 123] yielded an IC50 of 1.2 nM.

In the case of `COc1ccc2c(Nc3ccc(C(C)C(=O)NO)c(F)c3)ccnc2n1` (centres unmarked) [Compound 61], the IC50 is reported as 1.7 nM.

With `CCn1ncc2c(Nc3ccc(C(C)(C)C(=O)NO)cc3)ccnc21` [Compound 82] the IC50 was 1.7 nM.

`COc1ccc2c(Oc3ccc(C4(C(=O)NO)CCN(C)CC4)cc3)ccnc2n1` [Compound 146] gave an IC50 of 13 nM.

In the case of `COc1ccc2c(Nc3cc(F)c(CC(=O)NO)cc3F)ccnc2n1` [Compound 52], the IC50 is reported as 2.2 nM.

In the case of `COc1cc2nccc(Nc3ccc(C(C(=O)NO)C(C)C)cc3)c2cn1` (centres unmarked) [Compound 177], the IC50 is reported as 7.9 nM.

Compound `COc1ccc2c(Oc3ccc4c(C(=O)NO)cccc4c3)ccnc2n1` [Compound 92] has an IC50 of 169 nM.

With `COc1ccc2c(Oc3ccc(C(C)(C)C(=O)NO)c(C)c3)ccnc2n1` [Compound 109] the IC50 was 2.3 nM.

`COc1cc(Nc2ncnc3c2cnn3C)ccc1C(C)(C)C(=O)NO` [Compound 126] was tested, and the IC50 was 21 nM.

`CCn1ncc2c(Nc3ccc(CC(=O)NO)c(F)c3)ccnc21` [Compound 193] showed an IC50 of 2.2 nM.

`COc1ccc2c(Oc3ccc(CC(=O)NO)cc3F)ccnc2n1` [Compound 26] was tested, and the IC50 was 1.3 nM.

With `COc1ccc2c(Oc3ccc(C4(C(=O)NO)CCOCC4)c(C)c3)ccnc2n1` [Compound 139] the IC50 was 2.3 nM.

For `CCn1ncc2c(Nc3ccc(CC(=O)NO)cc3F)ccnc21` [Compound 192], the IC50 was 1.4 nM.

`COc1ccc2c(Oc3ccc([C@@H](C(=O)NO)C4CCOCC4)c(F)c3)ccnc2n1` [Compound 198] was tested, and the IC50 was 61 nM.

With `COc1ccc2c(Nc3ccc(C4(C(=O)NO)CCOCC4)cc3)c(C#N)cnc2c1` [Compound 180] the IC50 was 1.6 nM.

`COc1ccc2c(CN3CCC(C(C)(C)C(=O)NO)C3)ccnc2n1` (centres unmarked) [Compound 157] was tested, and the IC50 was 81 nM.

`Cn1c(=O)ccc2c(Nc3ccc(CC(=O)NO)cc3)ccnc21` [Compound 18, N-hydroxy-2-(4-((8-methyl-7-oxy-7,8-dihydro-1,8-naphthyridin-4-yl)amino)phenyl)acetamide] showed an IC50 of 343 nM.

For `COc1ccc2c(N3CCc4cc(C5(C(=O)NO)CCOCC5)ccc43)ccnc2n1` [Compound 158], the IC50 was 9.9 nM.

`COc1ccc2c(Oc3ccc(CC(=O)NO)cc3C)ccnc2n1` [Compound 21] was tested, and the IC50 was 3.1 nM.

`COc1ccc2c(NC3CCN(CC(=O)NO)C3)ccnc2n1` (centres unmarked) [Compound 143] was tested, and the IC50 was 4.7 nM.

`COc1ccc2c(Oc3ccc(C(OC)C(=O)NO)cc3)ccnc2n1` (centres unmarked) [Compound 85] gave an IC50 of 4.8 nM.

In the case of `Cc1cc(Nc2ncnc3ccccc23)ccc1CC(=O)NO` [Compound 24], the IC50 is reported as 36 nM.

Work on `COc1ccc2c(Oc3ccc(C4(C(=O)NO)CCOCC4)cc3F)ccnc2n1` [Compound 136] yielded an IC50 of 4.4 nM.

Work on `CCn1ncc2c(Oc3ccc(C(C)C(=O)NO)cc3)ccnc21` (centres unmarked) [Compound 73] yielded an IC50 of 8.6 nM.

For `COc1ccc2c(N3CCc4cc(CC(=O)NO)ccc43)ccnc2n1` [Compound 204], the IC50 was 24 nM.

In the case of `COc1ccc2c(Nc3ccc(CC(=O)NO)nc3)ccnc2n1` [Compound 44], the IC50 is reported as 2.7 nM.

`COc1cc2nccc(Nc3ccc(CC(=O)NO)cc3)c2cc1OC` [Example A-1, reference compound] was tested, and the IC50 was 89 nM.

With `COc1ccc2c(Nc3ccc(CC(=O)NO)cc3)nc(C)nc2n1` [Compound 37] the IC50 was 2.4 nM.

With `COc1ccc2c(Oc3ccc(C(C)C(=O)NO)cc3)ccnc2n1` (centres unmarked) [Compound 27] the IC50 was 2.1 nM.

`Cn1ncc2c(Oc3ccc(C4(C(=O)NO)CCCC4)cc3)ccnc21` [Compound 129] gave an IC50 of 5.7 nM.

For `COc1ccc2c(Oc3ccc(CC(=O)NO)c(F)c3)ccnc2n1` [Compound 25], the IC50 was 1.9 nM.

Work on `CCn1ncc2c(Oc3ccc(C(C)(C)C(=O)NO)cc3)ccnc21` [Compound 53] yielded an IC50 of 2.9 nM.

Compound `Cn1ncc2c(Oc3ccc(C(C)(C)C(=O)NO)cc3)ccnc21` [Compound 41] has an IC50 of 3 nM.

`CCn1ncc2c(Nc3ccc(CC(=O)NO)cc3)ccnc21` [Compound 49] gave an IC50 of 1.4 nM.

`COc1ccc2c(Oc3ccc(C(O)C(=O)NO)cc3)ccnc2n1` (centres unmarked) [Compound 38] was tested, and the IC50 was 4.4 nM.

`Cc1noc2ncnc(Oc3ccc(C(C)(C)C(=O)NO)cc3)c12` [Compound 194, N-hydroxy-2-methyl-2-(4-((3-methylisoxazol[5,4-d]pyrimidin-4-yl)oxy)phenyl)propanamide] showed an IC50 of 284 nM.

For `COc1ccc2c(Nc3ccc(CC(=O)NO)c(OC)c3)ccnc2n1` [Compound 79], the IC50 was 1.9 nM.

With `COc1ccc2c(Nc3ccc(C4(C(=O)NO)CCOCC4)cc3)ccnc2c1` [Compound 164] the IC50 was 3.4 nM.

Work on `CCn1ncc2c(Nc3ccc(C(C)C(=O)NO)c(F)c3)ccnc21` (centres unmarked) [Compound 65] yielded an IC50 of 1.9 nM.

Work on `COc1ccc2c(Nc3cc(F)c(C(C)C(=O)NO)c(F)c3)ccnc2n1` (centres unmarked) [Compound 48] yielded an IC50 of 2.7 nM.

In the case of `Cn1ncc2c(Nc3ccc(CC(=O)NO)cc3)ccnc21` [Compound 40], the IC50 is reported as 4.8 nM.

`COc1ccc2c(NC3CCN(C(C)(C)C(=O)NO)C3)ccnc2n1` (centres unmarked) [Compound 144] gave an IC50 of 259 nM.

`COc1ccc2c(N[C@H]3CCN(C(C)(C)C(=O)NO)C3)ccnc2n1` [Compound 202] was tested, and the IC50 was 3.3 nM.

Work on `COc1cc2nccc(Nc3c(F)cc(C(CC(C)C)C(=O)NO)cc3F)c2cn1` (centres unmarked) [Compound 184] yielded an IC50 of 2.2 nM.

Compound `COc1ccc2c(Oc3ccc4c(c3)CCCC4(C)C(=O)NO)ccnc2n1` (centres unmarked) [Compound 203] has an IC50 of 1.8 nM.

Compound `Cn1ncc2c(Nc3ccc(C4(C(=O)NO)CCOCC4)cc3)ncnc21` [Compound 207] has an IC50 of 9.3 nM.

`O=C(Cc1ccc(Nc2ncnc3c2cnn3C2CC2)cc1)NO` [Compound 34] was tested, and the IC50 was 376 nM.

For `COc1cnc2c(Oc3ccc(CC(=O)NO)cc3)ccnc2c1` [Compound 20], the IC50 was 324 nM.

`COc1ccc2c(O[C@H]3CCN(C(C)(C)C(=O)NO)C3)ccnc2n1` [Compound 205] showed an IC50 of 39 nM.

Compound `COc1ccc2c(Nc3ccc(C(C)(C)C(=O)NO)cc3)cnnc2c1` [Compound 147] has an IC50 of 1.5 nM.

With `COc1ccc2c(Oc3ccc(C4(C(=O)NO)CCN(Cc5ccccc5)CC4)cc3)ccnc2n1` [Compound 173] the IC50 was 1.6 nM.

For `Cn1ncc2c(Nc3ccc(CC(=O)NO)cc3)ncnc21` [Compound 15], the IC50 was 19 nM.

`Cn1ncc2c(Oc3ccc(CC(=O)NO)cc3)ccnc21` [Compound 28] was tested, and the IC50 was 14 nM.

`COc1ccc2c(C(C)c3ccc(C(C)(C)C(=O)NO)cc3)ccnc2n1` (centres unmarked) [Compound 113] showed an IC50 of 219 nM.

Work on `COc1ccc2nccc(Oc3ccc(C(C)(C)C(=O)NO)cc3)c2c1` [Compound 99] yielded an IC50 of 63 nM.

Source: patent US20240383893A1, “Hydroxamic Acid Compound Having ENPP1 Inhibitory Activity and Use Thereof” (Haihe Biopharma Co., Ltd., priority 2021, published 2024)
